# According to US10040759B2, “Substituted azetidinyl compounds as GlyT1 inhibitors” (DART NEUROSCIENCE (CAYMAN) LTD., priority 2014, dated 2018):
# Biological target: T1, GlyT1 (Homo sapiens, UniProt P48067)
# T1 construct: expressed in transfected cells
# T1 sequence (P48067 1-706): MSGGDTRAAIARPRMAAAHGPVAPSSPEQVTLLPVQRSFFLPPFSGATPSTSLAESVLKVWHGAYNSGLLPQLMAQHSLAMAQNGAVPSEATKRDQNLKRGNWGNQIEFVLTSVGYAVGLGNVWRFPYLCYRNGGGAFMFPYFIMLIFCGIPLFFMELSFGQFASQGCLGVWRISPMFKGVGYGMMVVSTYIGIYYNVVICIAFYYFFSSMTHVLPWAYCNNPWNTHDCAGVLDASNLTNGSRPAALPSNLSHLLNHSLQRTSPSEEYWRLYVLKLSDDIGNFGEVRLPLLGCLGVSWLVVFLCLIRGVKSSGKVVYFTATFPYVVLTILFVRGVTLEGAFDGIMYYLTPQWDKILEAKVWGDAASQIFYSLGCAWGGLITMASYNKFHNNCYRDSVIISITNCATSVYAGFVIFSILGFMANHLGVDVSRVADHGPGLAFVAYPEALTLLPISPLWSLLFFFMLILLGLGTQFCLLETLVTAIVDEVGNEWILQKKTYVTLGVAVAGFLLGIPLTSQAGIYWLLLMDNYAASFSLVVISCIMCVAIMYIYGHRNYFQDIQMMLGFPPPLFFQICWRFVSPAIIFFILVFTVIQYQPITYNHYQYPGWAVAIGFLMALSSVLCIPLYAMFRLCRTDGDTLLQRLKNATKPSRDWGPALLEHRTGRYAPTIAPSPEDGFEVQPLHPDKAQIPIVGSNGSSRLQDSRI
# Assay: Glycine Transporter 1 (GlyT1) uptake assay, scintillation proximity assay of [14C]-glycine uptake
# Type: cell-based
# Settings: [14C]-glycine uptake; read-out: GlyT1 (pIC50) (converted)
# How it was run: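 IC50 values were derived by four-parameter logistic fitting of counts. The 2× compound solutions were made by 1:100 dilution into HBSS of DMSO serial dilutions.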
row,Compound,IC50
1,"COc1c(C#N)ccc(OC(C)C(F)(F)F)c1C(=O)N1CC(Oc2ccc(C)cc2)C1 (stereo not shown) [Example 78, 2-Methoxy-3-{[3-(4-methylphenoxy)azetidin-1-yl]carbonyl}-4-[(1,1,1-trifluoropropan-2-yl)oxy]benzonitrile]",1000 to 10000 nM
2,"CC(Oc1ccc(C#N)c(Cl)c1C(=O)N1CC(c2ccc(C#N)cc2)C1)C(F)(F)F (stereo not shown) [Example 79, 2-Chloro-3-{[3-(4-cyanophenyl)azetidin-1-yl]carbonyl}-4-[(1,1,1-trifluoropropan-2-yl)oxy]benzonitrile]",1000 to 10000 nM
3,"COc1ccc(C2CN(C(=O)c3c(OC(C)C(F)(F)F)ccc(C#N)c3Cl)C2)cc1 (stereo not shown) [Example 80, 2-Chloro-3-{[3-(4-methoxyphenyl)azetidin-1-yl]carbonyl}-4-[(1,1,1-trifluoropropan-2-yl)oxy]benzonitrile]",1000 to 10000 nM
4,"CC(Oc1ccc(C#N)c(Cl)c1C(=O)N1CC(c2ccc(F)c(F)c2)C1)C(F)(F)F (stereo not shown) [Example 81, 2-Chloro-3-{[3-(3,4-difluorophenyl)azetidin-1-yl]carbonyl}-4-[(1,1,1-trifluoropropan-2-yl)oxy]benzonitrile]",1000 to 10000 nM
5,"CC(Oc1ccc(C#N)c(Cl)c1C(=O)N1CC(c2cc(F)cc(F)c2)C1)C(F)(F)F (stereo not shown) [Example 82, 2-Chloro-3-{[3-(3,5-difluorophenyl)azetidin-1-yl]carbonyl}-4-[(1,1,1-trifluoropropan-2-yl)oxy]benzonitrile]",1000 to 10000 nM
6,"CC(Oc1ccc(C#N)c(Cl)c1C(=O)N1CC(c2ccc(Cl)cc2)C1)C(F)(F)F (stereo not shown) [Example 83, 2-Chloro-3-{[3-(4-chlorophenyl)azetidin-1-yl]carbonyl}-4-[(1,1,1-trifluoropropan-2-yl)oxy]benzonitrile]",100 to 1000 nM
7,"CC(Oc1ccc(C#N)c(Cl)c1C(=O)N1CC(c2ccccc2C(F)(F)F)C1)C(F)(F)F (stereo not shown) [Example 84, 2-Chloro-3-({3-[2-(trifluoromethyl)phenyl]azetidin-1-yl}carbonyl)-4-[(1,1,1-trifluoropropan-2-yl)oxy]benzonitrile]",100 to 1000 nM
8,"CC(Oc1ccc(C#N)c(Cl)c1C(=O)N1CC(c2cccc(C(F)(F)F)c2)C1)C(F)(F)F (stereo not shown) [Example 85, 2-Chloro-3-({3-[3-(trifluoromethyl)phenyl]azetidin-1-yl}carbonyl)-4-[(1,1,1-trifluoropropan-2-yl)oxy]benzonitrile]",100 to 1000 nM
9,"CC(Oc1ccc(C#N)c(Cl)c1C(=O)N1CC(c2ccc(F)cc2)C1)C(F)(F)F (stereo not shown) [Example 86, 2-Chloro-3-{[3-(4-fluorophenyl)azetidin-1-yl]carbonyl}-4-[(1,1,1-trifluoropropan-2-yl)oxy]benzonitrile]",100 to 1000 nM
10,"CC(Oc1ccc(C#N)c(Cl)c1C(=O)N1CC(c2ccccc2F)C1)C(F)(F)F (stereo not shown) [Example 87, 2-Chloro-3-{[3-(2-fluorophenyl)azetidin-1-yl]carbonyl}-4-[(1,1,1-trifluoropropan-2-yl)oxy]benzonitrile]",100 to 1000 nM
11,"CC(Oc1ccc(C#N)c(Cl)c1C(=O)N1CC(c2ccccn2)C1)C(F)(F)F (stereo not shown) [Example 88, 2-Chloro-3-{[3-(pyridin-2-yl)azetidin-1-yl]carbonyl}-4-[(1,1,1-trifluoropropan-2-yl)oxy]benzonitrile]",100 to 1000 nM
12,"COc1ccc(OC2CN(C(=O)c3c(OC(C)C(F)(F)F)ccc(C#N)c3Cl)C2)cc1 (stereo not shown) [Example 89, 2-Chloro-3-{[3-(4-methoxyphenoxy)azetidin-1-yl]carbonyl}-4-[(1,1,1-trifluoropropan-2-yl)oxy]benzonitrile]",< 100 nM
13,"COc1c(C#N)ccc(OC(C)C(F)(F)F)c1C(=O)N1CC(c2ccccc2C(F)(F)F)C1 (stereo not shown) [Example 90, 2-Methoxy-3-({3-[2-(trifluoromethyl)phenyl]azetidin-1-yl}carbonyl)-4-[(1,1,1-trifluoropropan-2-yl)oxy]benzonitrile]",< 100 nM
14,"COc1c(C#N)ccc(OC(C)C(F)(F)F)c1C(=O)N1CC(c2ccc(F)cc2)C1 (stereo not shown) [Example 91, 3-{[3-(4-Fluorophenyl)azetidin-1-yl]carbonyl}-2-methoxy-4-[(1,1,1-trifluoropropan-2-yl)oxy]benzonitrile]",< 100 nM
15,"COc1c(C#N)ccc(OC(C)C(F)(F)F)c1C(=O)N1CC(c2ccccc2F)C1 (stereo not shown) [Example 92, 3-{[3-(2-Fluorophenyl)azetidin-1-yl]carbonyl}-2-methoxy-4-[(1,1,1-trifluoropropan-2-yl)oxy]benzonitrile]",100 to 1000 nM
16,"COc1c(C#N)ccc(OC(C)C(F)(F)F)c1C(=O)N1CC(c2ccccn2)C1 (stereo not shown) [Example 93, 2-Methoxy-3-{[3-(pyridin-2-yl)azetidin-1-yl]carbonyl}-4-[(1,1,1-trifluoropropan-2-yl)oxy]benzonitrile]",< 100 nM
17,"COc1ccc(OC2CN(C(=O)c3c(OC(C)C(F)(F)F)ccc(C#N)c3OC)C2)cc1 (stereo not shown) [Example 94, 2-Methoxy-3-{[3-(4-methoxyphenoxy)azetidin-1-yl]carbonyl}-4-[(1,1,1-trifluoropropan-2-yl)oxy]benzonitrile]",> 10000 nM
18,"COc1c(C#N)ccc(OC(C)C(F)(F)F)c1C(=O)N1CC(c2ccc(C#N)cc2)C1 (stereo not shown) [Example 95, 3-{[3-(4-Cyanophenyl)azetidin-1-yl]carbonyl}-2-methoxy-4-[(1,1,1-trifluoropropan-2-yl)oxy]benzonitrile]",100 to 1000 nM
19,"COc1ccc(C2CN(C(=O)c3c(OC(C)C(F)(F)F)ccc(C#N)c3OC)C2)cc1 (stereo not shown) [Example 96, 2-Methoxy-3-{[3-(4-methoxyphenyl)azetidin-1-yl]carbonyl}-4-[(1,1,1-trifluoropropan-2-yl)oxy]benzonitrile]",< 100 nM
20,"COc1c(C#N)ccc(OC(C)C(F)(F)F)c1C(=O)N1CC(c2ccc(Cl)cc2)C1 (stereo not shown) [Example 97, 3-{[3-(4-Chlorophenyl)azetidin-1-yl]carbonyl}-2-methoxy-4-[(1,1,1-trifluoropropan-2-yl)oxy]benzonitrile]",100 to 1000 nM
21,"COc1c(C#N)ccc(OC(C)C(F)(F)F)c1C(=O)N1CC(c2ccc(C(F)(F)F)cc2)C1 (stereo not shown) [Example 98, 2-Methoxy-3-({3-[4-(trifluoromethyl)phenyl]azetidin-1-yl}carbonyl)-4-[(1,1,1-trifluoropropan-2-yl)oxy]benzonitrile]",100 to 1000 nM

# Results, then the compound that gave them:
row,IC50,Compound
1,< 100 nM,"COc1c(C#N)ccc(OC(C)C(F)(F)F)c1C(=O)N1CC(c2cccc(C(F)(F)F)c2)C1 (stereo not shown) [Example 99, 2-Methoxy-3-({3-[3-(trifluoromethyl)phenyl]azetidin-1-yl}carbonyl)-4-[(1,1,1-trifluoropropan-2-yl)oxy]benzonitrile]"
2,100 to 1000 nM,"COc1c(C#N)ccc(OC(C)C(F)(F)F)c1C(=O)N1CC(c2cc(F)cc(F)c2)C1 (stereo not shown) [Example 100, 3-{[3-(3,5-Difluorophenyl)azetidin-1-yl]carbonyl}-2-methoxy-4-[(1,1,1-trifluoropropan-2-yl)oxy]benzonitrile]"
3,< 100 nM,"COc1c(C#N)ccc(OC(C)C(F)(F)F)c1C(=O)N1CC(c2ccc(F)c(F)c2)C1 (stereo not shown) [Example 101, 3-{[3-(3,4-Difluorophenyl)azetidin-1-yl]carbonyl}-2-methoxy-4-[(1,1,1-trifluoropropan-2-yl)oxy]benzonitrile]"
4,100 to 1000 nM,"COc1c(C#N)ccc(OC(C)C(F)(F)F)c1C(=O)N1CC(Oc2cccnc2)C1 (stereo not shown) [Example 102, 2-Methoxy-3-{[3-(pyridin-3-yloxy)azetidin-1-yl]carbonyl}-4-[(1,1,1-trifluoropropan-2-yl)oxy]benzonitrile]"
5,< 100 nM,"CC(Oc1ccc(C#N)c(Cl)c1C(=O)N1CC(Oc2cccnc2)C1)C(F)(F)F (stereo not shown) [Example 103, 2-Chloro-3-{[3-(pyridin-3-yloxy)azetidin-1-yl]carbonyl}-4-[(1,1,1-trifluoropropan-2-yl)oxy]benzonitrile]"
6,100 to 1000 nM,"COc1c(C#N)ccc(C2(F)CCC2)c1C(=O)N1CC(c2ccc(C#N)cc2)C1 [Example 104, 3-{[3-(4-Cyanophenyl)azetidin-1-yl]carbonyl}-4-(1-fluorocyclobutyl)-2-methoxybenzonitrile]"
7,100 to 1000 nM,"N#Cc1ccc(OCC(F)(F)F)c(C(=O)N2CC(c3ccc(C(F)(F)F)cc3)C2)c1Cl [Example 105, 2-Chloro-4-(2,2,2-trifluoroethoxy)-3-({3-[4-(trifluoromethyl)phenyl]azetidin-1-yl}carbonyl)benzonitrile]"
8,< 100 nM,"N#Cc1ccc(C2CN(C(=O)c3c(OCC(F)(F)F)ccc(C#N)c3Cl)C2)cc1 [Example 106, 2-Chloro-3-{[3-(4-cyanophenyl)azetidin-1-yl]carbonyl}-4-(2,2,2-trifluoroethoxy)benzonitrile]"
9,< 100 nM,"C[C@H](Oc1ccc(C#N)c(Cl)c1C(=O)N1CC(c2ccc(C(F)(F)F)cc2)C1)C(F)(F)F [Example 107, 2-Chloro-3-({3-[4-(trifluoromethyl)phenyl]azetidin-1-yl}carbonyl)-4-{[(2S)-1,1,1-trifluoropropan-2-yl]oxy}benzonitrile]"
10,1000 to 10000 nM,"COc1c(C#N)ccc(O[C@@H](C)C(F)(F)F)c1C(=O)N1CC(c2ccc(C#N)cc2)C1 [Example 108, 3-{[3-(4-Cyanophenyl)azetidin-1-yl]carbonyl}-2-methoxy-4-{[(2S)-1,1,1-trifluoropropan-2-yl]oxy}benzonitrile]"
